From patent US20240182531A1, “KV1.3 Blockers” (priority 2021, published 2024)
Where a SMILES comes first, the peptide text is derived from it. Bridges are numbered along the chain shown (N, C = ends). [ ]: non-standard residue; d: D form. Nle = CCCC[C@H](N)C(=O)O; Abu = CC[C@H](N)C(=O)O

What was measured:
human Kv1.1 = target: T1, human Kv1.1 (Homo sapiens, UniProt Q09470); assay: cell-based; details: ratio of patch clamp IC50 values
T1 construct: expressed in transfected cells; host or cells: CHO
T1 sequence (Q09470 whole entry): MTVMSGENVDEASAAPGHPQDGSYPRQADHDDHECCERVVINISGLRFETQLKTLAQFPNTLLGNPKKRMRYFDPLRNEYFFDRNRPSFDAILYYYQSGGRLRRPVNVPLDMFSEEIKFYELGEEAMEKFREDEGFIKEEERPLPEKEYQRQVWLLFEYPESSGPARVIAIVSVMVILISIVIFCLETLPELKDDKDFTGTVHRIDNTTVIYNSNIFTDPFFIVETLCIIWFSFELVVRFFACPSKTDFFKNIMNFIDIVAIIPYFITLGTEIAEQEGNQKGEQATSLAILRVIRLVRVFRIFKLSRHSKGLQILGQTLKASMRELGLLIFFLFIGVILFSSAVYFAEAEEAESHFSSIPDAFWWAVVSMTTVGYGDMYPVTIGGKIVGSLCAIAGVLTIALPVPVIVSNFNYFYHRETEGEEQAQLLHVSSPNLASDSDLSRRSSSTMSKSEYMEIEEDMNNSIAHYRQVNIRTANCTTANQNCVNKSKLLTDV

human Kv1.2 = target: T2, human Kv1.2 (Homo sapiens, UniProt P16389); assay: cell-based; details: ratio of patch clamp IC50 values
T2 construct: expressed in transfected cells; host or cells: CHO
T2 sequence (P16389 whole entry): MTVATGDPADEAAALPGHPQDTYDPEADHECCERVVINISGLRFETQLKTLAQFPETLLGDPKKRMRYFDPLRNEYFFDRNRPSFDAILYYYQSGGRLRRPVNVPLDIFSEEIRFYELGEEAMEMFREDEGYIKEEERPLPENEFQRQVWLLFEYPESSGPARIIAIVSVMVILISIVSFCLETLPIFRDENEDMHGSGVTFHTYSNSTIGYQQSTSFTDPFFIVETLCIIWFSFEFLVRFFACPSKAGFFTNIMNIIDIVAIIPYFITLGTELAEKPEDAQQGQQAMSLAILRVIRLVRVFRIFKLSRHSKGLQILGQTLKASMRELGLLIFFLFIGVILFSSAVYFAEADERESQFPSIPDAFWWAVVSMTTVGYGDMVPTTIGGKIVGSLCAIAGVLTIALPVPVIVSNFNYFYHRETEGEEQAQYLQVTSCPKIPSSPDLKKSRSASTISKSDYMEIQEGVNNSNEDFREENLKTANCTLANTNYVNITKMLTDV

human Kv1.6 = target: T3, human Kv1.6 (Homo sapiens, UniProt P17658); assay: cell-based; details: ratio of patch clamp IC50 values
T3 construct: expressed in transfected cells; host or cells: CHO
T3 sequence (P17658 whole entry): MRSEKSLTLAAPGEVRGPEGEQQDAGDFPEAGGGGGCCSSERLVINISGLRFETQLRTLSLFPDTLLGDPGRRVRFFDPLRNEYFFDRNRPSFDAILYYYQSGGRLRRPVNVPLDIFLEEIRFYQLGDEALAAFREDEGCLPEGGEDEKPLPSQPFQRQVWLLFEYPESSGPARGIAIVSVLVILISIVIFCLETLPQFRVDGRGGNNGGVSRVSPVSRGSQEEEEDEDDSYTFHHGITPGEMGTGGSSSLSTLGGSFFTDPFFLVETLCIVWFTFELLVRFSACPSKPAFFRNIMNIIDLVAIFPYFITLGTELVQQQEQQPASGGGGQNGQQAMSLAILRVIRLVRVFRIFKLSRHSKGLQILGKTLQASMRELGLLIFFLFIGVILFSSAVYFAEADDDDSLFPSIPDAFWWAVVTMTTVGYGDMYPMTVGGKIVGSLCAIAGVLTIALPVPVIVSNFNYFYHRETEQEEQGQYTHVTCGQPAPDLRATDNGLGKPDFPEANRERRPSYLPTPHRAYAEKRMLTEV

Rat whole blood = Rat whole blood (Rattus norvegicus, UniProt P15384); format: cell-based; details: IL-17A release, thapsigargin, 24 Hr, at least 2 replicates
Sequence of Rat whole blood (P15384 whole entry): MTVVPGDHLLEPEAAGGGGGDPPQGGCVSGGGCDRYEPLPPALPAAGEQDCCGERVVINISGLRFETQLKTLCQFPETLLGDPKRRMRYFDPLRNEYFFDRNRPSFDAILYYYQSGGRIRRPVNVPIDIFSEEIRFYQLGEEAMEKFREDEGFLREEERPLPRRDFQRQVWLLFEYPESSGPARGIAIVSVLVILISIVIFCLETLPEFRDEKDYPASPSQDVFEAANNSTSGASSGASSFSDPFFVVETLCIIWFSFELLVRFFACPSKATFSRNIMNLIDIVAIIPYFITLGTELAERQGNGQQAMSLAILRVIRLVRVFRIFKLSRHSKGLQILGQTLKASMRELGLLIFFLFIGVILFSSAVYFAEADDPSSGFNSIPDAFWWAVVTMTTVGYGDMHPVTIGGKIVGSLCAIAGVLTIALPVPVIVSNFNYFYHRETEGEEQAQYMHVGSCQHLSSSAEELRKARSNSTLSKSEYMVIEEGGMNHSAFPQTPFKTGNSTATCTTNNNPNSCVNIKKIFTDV

CC[C@H](C)[C@@H]1NC(=O)[C@H](C)NC(=O)[C@H](CCCCN)NC(=O)[C@H](CC(C)C)NC(=O)[C@@H]2CSSC[C@@H](C(=O)N[C@@H](Cc3ccc(O)cc3)C(=O)N3CCC[C@H]3C(=O)N[C@@H](CCCNC(=N)N)C(=O)O)NC(=O)[C@H](CCCCN)NC(=O)[C@@H]3CSSC[C@H](NC(=O)[C@H](CCC(=O)O)NC(=O)[C@H](C(C)C)NC(=O)[C@H](CO)NC(=O)[C@H](C)NC(=O)[C@H](CO)NC(=O)[C@@H](NC(=O)[C@H](CCCNC(=N)N)NC(=O)[C@H](CCSC)NC(=O)[C@H](CC(=O)O)NC(=O)[C@H](CCSC)NC(=O)[C@@H](N)CCC(N)=O)CSSC[C@H](NC(=O)[C@H](CCCCN)NC(=O)CNC(=O)[C@H](Cc4ccccc4)NC(=O)CNC(=O)[C@H](CCCNC(=N)N)NC(=O)CNC1=O)C(=O)N[C@@H](CCSC)C(=O)N[C@@H](CC(N)=O)C(=O)N[C@@H](CCCCN)C(=O)N[C@@H](CCCCN)C(=O)N3)C(=O)N[C@@H](CCCCN)C(=O)N[C@@H](CCC(N)=O)C(=O)N[C@@H](CCCCN)C(=O)N2 [compound 16] (H-QMDMRCSASVECKQKCLKAIGRGFGKCMNKKCKCYPR-OH; disulfide 6-27, 12-32, 16-34)
Selectivity ratio Kv1.1/Kv1.3 (human Kv1.1): >2000 | Selectivity ratio Kv1.2/Kv1.3 (human Kv1.2): 65 | Selectivity ratio Kv1.6/Kv1.3 (human Kv1.6): 1204

CC[C@H](C)[C@@H]1NC(=O)[C@H](C)NC(=O)[C@H](CCCCN)NC(=O)[C@H](CC(C)C)NC(=O)[C@@H]2CSSC[C@@H](C(=O)N[C@@H](Cc3ccc(O)cc3)C(=O)N3CCC[C@H]3C(=O)N[C@@H](CCCNC(=N)N)C(=O)O)NC(=O)[C@H](CCCCN)NC(=O)[C@@H]3CSSC[C@H](NC(=O)[C@H](CCC(=O)O)NC(=O)[C@H](C(C)C)NC(=O)[C@H](CO)NC(=O)[C@H](C)NC(=O)[C@H](CO)NC(=O)[C@@H](NC(=O)[C@H](CCCNC(=N)N)NC(=O)[C@H](CCSC)NC(=O)[C@H](CC(=O)O)NC(=O)[C@@H](N)CCSC)CSSC[C@H](NC(=O)[C@H](CCCCN)NC(=O)CNC(=O)[C@H](Cc4ccccc4)NC(=O)[C@H]([C@@H](C)CC)NC(=O)[C@H](CO)NC(=O)CNC1=O)C(=O)N[C@@H](CCSC)C(=O)N[C@@H](CC(N)=O)C(=O)N[C@@H](CCCCN)C(=O)N[C@@H](CCCCN)C(=O)N3)C(=O)N[C@@H](CCCCN)C(=O)N[C@@H](CCC(N)=O)C(=O)N[C@@H](CCCCN)C(=O)N2 [compound 18] (H-MDMRCSASVECKQKCLKAIGSIFGKCMNKKCKCYPR-OH; disulfide 5-26, 11-31, 15-33)
Selectivity ratio Kv1.1/Kv1.3 (human Kv1.1): >7900 | Selectivity ratio Kv1.2/Kv1.3 (human Kv1.2): 747 | Selectivity ratio Kv1.6/Kv1.3 (human Kv1.6): >7900

CC[C@H](C)[C@@H]1NC(=O)[C@H](C)NC(=O)[C@H](CCCCN)NC(=O)[C@H](CC(C)C)NC(=O)[C@@H]2CSSC[C@@H](C(=O)N[C@@H](Cc3ccc(O)cc3)C(=O)N3CCC[C@H]3C(=O)N[C@@H](CCCNC(=N)N)C(=O)O)NC(=O)[C@H](CCCCN)NC(=O)[C@@H]3CSSC[C@H](NC(=O)[C@H](CCC(=O)O)NC(=O)[C@H](C(C)C)NC(=O)[C@H](CO)NC(=O)[C@H](C)NC(=O)[C@H](CO)NC(=O)[C@@H](NC(=O)[C@H](CCCNC(=N)N)NC(=O)[C@H](CCSC)NC(=O)[C@H](CC(=O)O)NC(=O)[C@@H](NC(=O)[C@@H](N)CC(N)=O)[C@@H](C)CC)CSSC[C@H](NC(=O)[C@H](CCCCN)NC(=O)CNC(=O)[C@H](Cc4ccccc4)NC(=O)[C@H]([C@@H](C)CC)NC(=O)[C@H](CO)NC(=O)CNC1=O)C(=O)N[C@@H](CCSC)C(=O)N[C@@H](CC(N)=O)C(=O)N[C@@H](CCCCN)C(=O)N[C@@H](CCCCN)C(=O)N3)C(=O)N[C@@H](CCCCN)C(=O)N[C@@H](CCC(N)=O)C(=O)N[C@@H](CCCCN)C(=O)N2 [compound 19] (H-NIDMRCSASVECKQKCLKAIGSIFGKCMNKKCKCYPR-OH; disulfide 6-27, 12-32, 16-34)
Selectivity ratio Kv1.1/Kv1.3 (human Kv1.1): >6800 | Selectivity ratio Kv1.2/Kv1.3 (human Kv1.2): 857 | Selectivity ratio Kv1.6/Kv1.3 (human Kv1.6): >6800

CC[C@H](C)[C@@H]1NC(=O)[C@H](C)NC(=O)[C@H](CCCCN)NC(=O)[C@H](CC(C)C)NC(=O)[C@@H]2CSSC[C@@H](C(=O)N[C@@H](Cc3ccc(O)cc3)C(=O)N3CCC[C@H]3C(=O)N[C@@H](CCCNC(=N)N)C(=O)O)NC(=O)[C@H](CCCCN)NC(=O)[C@@H]3CSSC[C@H](NC(=O)[C@H](CCC(=O)O)NC(=O)[C@H](C(C)C)NC(=O)[C@H](CO)NC(=O)[C@H](C)NC(=O)[C@H](CO)NC(=O)[C@@H](NC(=O)[C@H](CCCNC(=N)N)NC(=O)[C@H](CCSC)NC(=O)[C@H](CCC(=O)O)NC(=O)[C@H](CCSC)NC(=O)[C@@H](N)CC(N)=O)CSSC[C@H](NC(=O)[C@H](CCCCN)NC(=O)CNC(=O)[C@H](Cc4ccccc4)NC(=O)[C@H]([C@@H](C)CC)NC(=O)[C@H](CO)NC(=O)CNC1=O)C(=O)N[C@@H](CCSC)C(=O)N[C@@H](CC(N)=O)C(=O)N[C@@H](CCCCN)C(=O)N[C@@H](CCCCN)C(=O)N3)C(=O)N[C@@H](CCCCN)C(=O)N[C@@H](CCC(N)=O)C(=O)N[C@@H](CCCCN)C(=O)N2 [compound 20] (H-NMEMRCSASVECKQKCLKAIGSIFGKCMNKKCKCYPR-OH; disulfide 6-27, 12-32, 16-34)
Selectivity ratio Kv1.1/Kv1.3 (human Kv1.1): >27600 | Selectivity ratio Kv1.2/Kv1.3 (human Kv1.2): 2093 | Selectivity ratio Kv1.6/Kv1.3 (human Kv1.6): >27600

CCCC[C@@H]1NC(=O)[C@@H]2CSSC[C@H](NC(=O)[C@H](CCCNC(=N)N)NC(=O)[C@H](CCCC)NC(=O)[C@H](CC(=O)O)NC(=O)[C@H](CCCC)NC(=O)[C@@H](N)CC(N)=O)C(=O)N[C@@H](CO)C(=O)N[C@@H](C)C(=O)N[C@@H](CO)C(=O)N[C@@H](C(C)C)C(=O)N[C@@H](CCC(=O)O)C(=O)N[C@H]3CSSC[C@H](NC(=O)[C@H](CCCCN)NC(=O)[C@H](CCCCN)NC(=O)[C@H](CC(N)=O)NC1=O)C(=O)N[C@@H](CCCCN)C(=O)N[C@H](C(=O)N[C@@H](Cc1ccc(O)cc1)C(=O)N1CCC[C@H]1C(=O)N[C@@H](CCCNC(=N)N)C(N)=O)CSSC[C@H](NC(=O)[C@H](CCCCN)NC(=O)[C@H](CCC(N)=O)NC(=O)[C@H](CCCCN)NC3=O)C(=O)N[C@@H](CC(C)C)C(=O)N[C@@H](CCCCN)C(=O)N[C@@H](C)C(=O)N[C@@H]([C@@H](C)CC)C(=O)NCC(=O)N[C@@H](CO)C(=O)N[C@@H]([C@@H](C)CC)C(=O)N[C@@H](Cc1ccccc1)C(=O)NCC(=O)N[C@@H](CCCCN)C(=O)N2 [compound 44] (H-N[Nle]D[Nle]RCSASVECKQKCLKAIGSIFGKC[Nle]NKKCKCYPR-NH2; disulfide 6-27, 12-32, 16-34)
Selectivity ratio Kv1.1/Kv1.3 (human Kv1.1): >11600 | Selectivity ratio Kv1.2/Kv1.3 (human Kv1.2): 436 | Selectivity ratio Kv1.6/Kv1.3 (human Kv1.6): 7073

CC[C@H](C)[C@@H]1NC(=O)[C@H](C)NC(=O)[C@H](Cc2ccc(O)cc2)NC(=O)[C@H](CC(C)C)NC(=O)[C@@H]2CSSC[C@@H](C(=O)N[C@@H](Cc3ccc(O)cc3)C(=O)N3CCC[C@H]3C(=O)N[C@@H](CCCNC(=N)N)C(N)=O)NC(=O)[C@H](CCCCN)NC(=O)[C@@H]3CSSC[C@H](NC(=O)[C@H](CCC(=O)O)NC(=O)[C@H](C(C)C)NC(=O)[C@H](CO)NC(=O)[C@H](C)NC(=O)[C@H](CO)NC(=O)[C@@H](NC(=O)[C@H](CCCNC(=N)N)NC(=O)[C@H](CCSC)NC(=O)[C@H](CC(=O)O)NC(=O)[C@H](CCSC)NC(=O)[C@@H](N)CC(N)=O)CSSC[C@H](NC(=O)[C@H](CCCCN)NC(=O)CNC(=O)[C@H](Cc4ccccc4)NC(=O)[C@H]([C@@H](C)CC)NC(=O)[C@H](CO)NC(=O)CNC1=O)C(=O)N[C@@H](CCSC)C(=O)N[C@@H](CC(N)=O)C(=O)N[C@@H](CCCCN)C(=O)N[C@@H](CCCCN)C(=O)N3)C(=O)N[C@@H](CCCCN)C(=O)N[C@@H](CCC(N)=O)C(=O)N[C@@H](CCCCN)C(=O)N2 [compound 57] (H-NMDMRCSASVECKQKCLYAIGSIFGKCMNKKCKCYPR-NH2; disulfide 6-27, 12-32, 16-34)
Selectivity ratio Kv1.1/Kv1.3 (human Kv1.1): >10300 | Selectivity ratio Kv1.2/Kv1.3 (human Kv1.2): 514 | Selectivity ratio Kv1.6/Kv1.3 (human Kv1.6): >10300

H-S[Nle]D[Nle]RCSASVECKQKCLKAIGSIFG[homo-Lys]CMNKKCKCYPR-NH2 [compound 69]
IC50 (Rat whole blood): 2700 pM

H-S[Nle]D[Nle]RCSASVECKQKCLVAIGSIFGKCMNKKCKCYPR-NH2 (cysteine pairing not given here) [compound 77]
IC50 (Rat whole blood): 390 pM

H-S[Nle]D[Nle]RCSASVECK[2-Amino-5-carboxypentanoyl]KCLKAIGSIFGKCMNKKCKCYPR-NH2 [compound 73]
IC50 (Rat whole blood): 520 pM

H-S[Nle]D[Nle]RCSASVECVQKCLKAIGSIFGKCMNKKCKCYPR-NH2 (cysteine pairing not given here) [compound 72]
IC50 (Rat whole blood): 470 pM

H-S[Nle]D[Nle]RCSA[Abu]VECKQKCLKAIGSIFGKCMNKKCKCYPR-NH2 (cysteine pairing not given here) [compound 68]
IC50 (Rat whole blood): 930 pM

LRCSASVECKQKCLAAIGSIFGKCMNKKCKCYPR [compound 105]
IC50 (Rat whole blood): 360 pM

NMDMRCSASVECKQKCLKAIGSIFGKCMNKKCVCYPR [compound 42]
IC50 (Rat whole blood): 2800 pM

NMDMRCSASVECKQKCLKAIHSIFGKCMNKKCKCYPR [compound 37]
IC50 (Rat whole blood): 700 pM
